{"source": "patent US20220338471A1", "about": "“HONEY BEE-SAFE ACARICIDAL COMPOUNDS” (Kansas State University Research Foundation, priority 2019, published 2022)", "key": {"[1]": {"tested_on": "Varroa mites", "test": "Varroa mite toxicity test (forced feeding, 200 nL drop on the gnathosoma; paralysis/death counted)", "assay_type": "in vivo, Varroa destructor", "conditions": "48-hour treatment, feeding assay", "protocol": "Varroa mite toxicity test: Adult female Varroa mites were collected using a sugar roll method from honey bee hives located at the East Campus apiary of the University of Nebraska (Lincoln, Nebr. USA). The hives were not treated with chemicals for honey bee parasites or pathogens. The mites were sorted in the laboratory with a paint brush and tested within 4 h post collection. The mites were placed in 9 cm diameter Petri dishes (Fisher Scientific) lined with filter paper. The dorsal side of the mites was secured to a strip of tape placed on the filter paper. Ten mites were secured to the tape in each dish and three dishes were used for each treatment (i.e., 30 mites/treatment). The peptide mimics were prepared in autoclaved ddH2O to a concentration of 0.1 nM for 2334, 2336, and Ac-2442 and 3 nM for 2326. Each peptide mimic was delivered as a 200 nL aliquot to the gnathosoma of the mites with autoclaved ddH2O serving as the untreated control. Following exposure to the peptide mimics, the number of affected (i.e., dead and/paralyzed) was observed and recorded at 1, 2, 6, 12, 24, and 48 h. The percent effect for each treatment was analyzed using a one-way analysis of variance (ANOVA) with a Tukey's post-hoc test (GraphPad Prism, La Jolla, Calif.; p<0.05).\nIn the continued bioassay (FIG. 4 and FIG. 5), the toxicities were assessed by counting paralysis/death in feeding assay. […]"}, "[2]": {"tested_on": "worker honey bees", "test": "Injection into the thorax of worker honey bees (negative effects)", "assay_type": "in vivo, honey bee", "conditions": "injection of 50 nL at 200 μM into the thorax, 24-hour observation, n=4", "protocol": "Honey bee FMRFamide receptor was cloned and expressed in the same system as described for the procotolin receptor. […] Potential effects of the peptidomimetics 2439, 2334, 2336, Ac-2442, and H2O control were tested by injections of the compounds into the thorax of worker honey bees."}, "[3]": {"molecular_target": "T1, varroa mite proctolin receptor (VdProctR) (Varroa destructor, UniProt A0A7T1TE40)", "T1 sequence (A0A7T1TE40 1-530)": "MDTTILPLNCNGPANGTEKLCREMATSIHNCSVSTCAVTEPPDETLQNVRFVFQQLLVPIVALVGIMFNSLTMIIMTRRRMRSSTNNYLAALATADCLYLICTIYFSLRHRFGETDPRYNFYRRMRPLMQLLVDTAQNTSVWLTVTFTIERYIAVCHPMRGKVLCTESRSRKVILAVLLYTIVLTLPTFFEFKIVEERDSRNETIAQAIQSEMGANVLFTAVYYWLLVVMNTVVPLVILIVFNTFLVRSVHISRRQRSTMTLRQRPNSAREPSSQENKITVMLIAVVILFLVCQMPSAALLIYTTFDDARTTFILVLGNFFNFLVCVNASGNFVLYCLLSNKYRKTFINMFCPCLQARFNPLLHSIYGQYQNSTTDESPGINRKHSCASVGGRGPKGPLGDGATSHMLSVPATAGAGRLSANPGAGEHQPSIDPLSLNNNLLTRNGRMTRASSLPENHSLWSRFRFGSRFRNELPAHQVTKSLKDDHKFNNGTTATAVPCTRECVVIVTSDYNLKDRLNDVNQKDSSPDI", "test": "Receptor activity assay: luminescence in cells transiently transfected with varroa mite proctolin receptor", "assay_type": "cell-based", "protocol": "Approximately thirty hours after transfection, the cells were collected and preincubated with coelenterazine h for the functional assay. The ligands in serial dilutions were loaded into 96-well opaque plates. Cells treated with coelenterazine h were injected into each well on an Orion microplate luminometer (Berthold) luminescent plate reader. The luminescence was measured for 20 seconds immediately after the cell injections. Data analyses were performed to determine the accumulated luminescence value for 20 seconds after extraction of blank-well luminescence. A dose-response curve was generated and the EC50 (50% effective concentration) was calculated in Origin 7 (OriginLab)."}}, "note": "“And” between values parts separate entries of the source, which are not always exact repeats. Equal entries are not always repeated. Square brackets hold non-standard residues; d marks the D form. Peptide text beside a SMILES is read from it. Oic = O=C(O)[C@@H]1C[C@@H]2CCCC[C@@H]2N1"}
{"molecule": "CC(C)C[C@H](NC(=O)[C@H](Cc1ccc(O)cc1)NC(=O)[C@@H](N)CCCNC(=N)N)C(=O)N1[C@H](C(=O)N[C@H](C(=O)O)[C@@H](C)O)C[C@@H]2CCCC[C@@H]21", "note": "[Analog 2336, RYL[Oic]T] (H-RYL[Oic]T-OH; N-terminus assumed)", "values": [{"measurement": "Percent effect (paralyzed or dead mites)", "setting": "[1]", "value": 100, "unit": "%"}, {"measurement": "Negative effects in worker honey bees", "setting": "[2]", "value": "did not show any negative effects"}, {"measurement": "Activity at high concentrations compared with proctolin", "setting": "[3]; at 1 μM and 10 μM", "value": "higher than that of proctolin"}, {"measurement": "Fold change", "setting": "[3]; first set of experiments, EC50 relative to proctolin (0.22 nM)", "value": 5.95}, {"measurement": "EC50", "setting": "[3]; first set of experiments, varroa mite proctolin receptor, read-out: EC50", "value": "1.3 nM and 1.31 nM"}, {"measurement": "Agonist activity / potency on the Varroa mite proctolin receptor, in words", "setting": "[3]; in words", "value": "strong agonists"}]}
